Assay results: PubChem BioAssay AID330 (DTP/NCI, 2004)
Where “and” joins values, the source holds several entries; their conditions need not be identical. Equal entries are not always repeated. Toxic doses and inconclusive results are not listed. How the source made its calls: active means survival T/C of 150% or more; inactive means T/C below 125% in these data. Square brackets hold non-standard residues; d marks the D form. Peptide text beside a SMILES is read from it. * marks the point of attachment. ξ: configuration not given here. Cbz = O=C(OCc1ccccc1)*; ξNva = CCCC(N)C(=O)O

System: P388 leukemia ip, CD2F1 mice, survival T/C
Assay: NCI In Vivo Anticancer Drug Screen. Data for tumor model P388 Leukemia (intraperitoneal) in CD2F1 (CDF1) mice
Details: endpoint: median survival time, higher = longer survival
Outline: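 Mice carrying the transplanted tumor received test compound or vehicle. Survival was recorded in each group, and the value is the treated-group measurement divided by that of the vehicle-treated control group.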

[1] = dose: 2.5 mg/kg/injection, schedule: Q01DX009 (ip), vehicle: saline
[2] = dose: 5.0 mg/kg/injection, schedule: Q01DX009 (ip), vehicle: saline
[3] = dose: 50.0 mg/kg/injection, schedule: Q01DX005 (ip), vehicle: Klucel (hydroxypropylcellulose) (HPC)
[4] = dose: 100.0 mg/kg/injection, schedule: Q01DX005 (ip), vehicle: Klucel (hydroxypropylcellulose) (HPC)
[5] = dose: 200.0 mg/kg/injection, schedule: Q01DX005 (ip), vehicle: Klucel (hydroxypropylcellulose) (HPC)

Measured: T/C

O=C(O)CC(C(=O)O)S(=O)CP(=O)(O)O (stereo not drawn)
inactive: dose: 50.0 mg/kg/injection, schedule: Q01DX005 (ip), vehicle: saline 95 % of control | dose: 100.0 mg/kg/injection, schedule: Q01DX005 (ip), vehicle: saline 103 % of control | dose: 200.0 mg/kg/injection, schedule: Q01DX005 (ip), vehicle: saline 110 % of control

COc1ccc(/C=C2\CCn3c2nc2ccccc2c3=O)cc1
inactive: dose: 89.75 mg/kg/injection, schedule: Q04DX002 (ip), vehicle: Klucel (hydroxypropylcellulose) (HPC) 103 % of control | dose: 179.5 mg/kg/injection, schedule: Q04DX002 (ip), vehicle: Klucel (hydroxypropylcellulose) (HPC) 102 % of control | dose: 359.0 mg/kg/injection, schedule: Q04DX002 (ip), vehicle: Klucel (hydroxypropylcellulose) (HPC) 102 % of control

Nc1nc(-c2ccccc2)nc(-c2ccccc2)n1
inactive: [1] 104 % of control | dose: 3.12 mg/kg/injection, schedule: Q01DX009 (ip), vehicle: saline 95 % of control | dose: 3.12 mg/kg/injection, schedule: Q01DX009 (ip), vehicle: suspension in saline 100 % of control and 97 % of control | [2] 104 % of control | dose: 6.25 mg/kg/injection, schedule: Q01DX009 (ip), vehicle: saline 92 % of control | dose: 10.0 mg/kg/injection, schedule: Q01DX009 (ip), vehicle: saline 100 % of control | dose: 12.5 mg/kg/injection, schedule: Q01DX009 (ip), vehicle: saline 89 % of control | dose: 12.5 mg/kg/injection, schedule: Q01DX009 (ip), vehicle: suspension in saline 93 % of control and 98 % of control | dose: 20.0 mg/kg/injection, schedule: Q01DX009 (ip), vehicle: saline 100 % of control | dose: 25.0 mg/kg/injection, schedule: Q01DX009 (ip), vehicle: suspension in saline 90 % of control and 98 % of control

CCCCCN(CCCCC)C(C)C(=O)c1ccc(Cl)cc1 (stereo not drawn)
inactive: [3] 100 % of control | [4] 100 % of control | [5] 100 % of control

CCc1[nH]c2ccccc2c1C(=O)c1ccncc1
inactive: dose: 100.0 mg/kg/injection, schedule: Q04DX003 (ip), vehicle: suspension in saline 103 % of control | dose: 200.0 mg/kg/injection, schedule: Q04DX003 (ip), vehicle: suspension in saline 101 % of control | dose: 400.0 mg/kg/injection, schedule: Q04DX003 (ip), vehicle: suspension in saline 108 % of control

Cc1cc2c(c(O)cc(=O)n2Cc2ccccc2)c(=O)n1Cc1ccccc1
inactive: [3] 102 % of control | [4] 94 % of control | [5] 100 % of control

c1ccc(C[N+]23CC[N+](Cc4ccccc4)(CC2)CC3)cc1
inactive: dose: 50.0 mg/kg/injection, schedule: Q04DX003 (ip), vehicle: saline 95 % of control | dose: 100.0 mg/kg/injection, schedule: Q04DX003 (ip), vehicle: saline 108 % of control | dose: 200.0 mg/kg/injection, schedule: Q04DX003 (ip), vehicle: saline 95 % of control

Cc1ccc(S(=O)(=O)SC(C)(C)C)cc1
inactive: [3] 112 % of control | [4] 112 % of control | [5] 112 % of control

CCC(c1ccc(OCC(=O)N(CCCl)CCCl)cc1)C(CC)c1ccc(OCC(=O)N(CCCl)CCCl)cc1 (stereo not drawn)
inactive: dose: 100.0 mg/kg/injection, schedule: Q04DX002 (ip), vehicle: suspension in saline 98 % of control | dose: 200.0 mg/kg/injection, schedule: Q04DX002 (ip), vehicle: suspension in saline 97 % of control | dose: 400.0 mg/kg/injection, schedule: Q04DX002 (ip), vehicle: suspension in saline 103 % of control

CCCC(NC(=O)OCc1ccccc1)C(=O)NCC(=O)O (stereo not drawn) (Cbz-[ξNva]-Gly-OH)
inactive: [3] 107 % of control | [4] 93 % of control | [5] 91 % of control

CN(N=O)P(=O)(Nc1ccccc1)Nc1ccccc1
inactive: dose: 6.25 mg/kg/injection, schedule: Q01DX009 (ip), vehicle: other 100 % of control | dose: 25.0 mg/kg/injection, schedule: Q01DX009 (ip), vehicle: other 100 % of control | dose: 50.0 mg/kg/injection, schedule: Q01DX009 (ip), vehicle: other 100 % of control

C=C1C(=O)O[C@H]2C[C@@H]3O[C@@H]3[C@@H]12
inactive: dose: 1.56 mg/kg/injection, schedule: Q01DX009 (ip), vehicle: water 98 % of control | dose: 3.13 mg/kg/injection, schedule: Q01DX009 (ip), vehicle: water 100 % of control | dose: 6.25 mg/kg/injection, schedule: Q01DX009 (ip), vehicle: water 100 % of control | dose: 12.5 mg/kg/injection, schedule: Q01DX009 (ip), vehicle: water 109 % of control

CN(C)C(C)(C)P(=O)(O)O
inactive: dose: 100.0 mg/kg/injection, schedule: Q01DX009 (ip), vehicle: saline with Tween-80 100 % of control | dose: 200.0 mg/kg/injection, schedule: Q01DX009 (ip), vehicle: saline with Tween-80 100 % of control | dose: 400.0 mg/kg/injection, schedule: Q01DX009 (ip), vehicle: saline with Tween-80 100 % of control

Cc1cccc2c(OCC3CO3)cc(=O)[nH]c12 (stereo not drawn)
inactive: dose: 25.0 mg/kg/injection, schedule: Q01DX005 (ip), vehicle: saline with Tween-80 110 % of control | dose: 50.0 mg/kg/injection, schedule: Q01DX005 (ip), vehicle: saline with Tween-80 114 % of control and 118 % of control

CN1CCC/C1=C/C(=O)c1ccccc1[N+](=O)[O-]
inactive: dose: 100.0 mg/kg/injection, schedule: Q04DX002 (ip), vehicle: Klucel (hydroxypropylcellulose) (HPC) 102 % of control | dose: 200.0 mg/kg/injection, schedule: Q04DX002 (ip), vehicle: Klucel (hydroxypropylcellulose) (HPC) 99 % of control | dose: 400.0 mg/kg/injection, schedule: Q04DX002 (ip), vehicle: Klucel (hydroxypropylcellulose) (HPC) 100 % of control

O=C1c2ccc3ccccc3c2CCC1C1([n+]2ccccc2)CCc2c(ccc3ccccc23)C1=O (stereo not drawn)
inactive: dose: 6.25 mg/kg/injection, schedule: Q01DX005 (ip), vehicle: Klucel (hydroxypropylcellulose) (HPC) 99 % of control and 109 % of control | dose: 12.5 mg/kg/injection, schedule: Q01DX005 (ip), vehicle: Klucel (hydroxypropylcellulose) (HPC) 100 % of control and 103 % of control and 98 % of control | dose: 25.0 mg/kg/injection, schedule: Q01DX005 (ip), vehicle: Klucel (hydroxypropylcellulose) (HPC) 99 % of control and 100 % of control and 112 % of control

CNC/C=C/CN(C)C(=S)S
inactive: dose: 50.0 mg/kg/injection, schedule: Q01DX009 (ip), vehicle: saline 108 % of control | dose: 100.0 mg/kg/injection, schedule: Q01DX009 (ip), vehicle: saline 92 % of control | dose: 200.0 mg/kg/injection, schedule: Q01DX009 (ip), vehicle: saline 96 % of control

O=C(c1ccccc1)C(c1ccccc1)n1ncc2c1CCC2 (stereo not drawn)
inactive: dose: 100.0 mg/kg/injection, schedule: Q04DX003 (ip), vehicle: Klucel (hydroxypropylcellulose) (HPC) 105 % of control | dose: 200.0 mg/kg/injection, schedule: Q04DX003 (ip), vehicle: Klucel (hydroxypropylcellulose) (HPC) 100 % of control | dose: 400.0 mg/kg/injection, schedule: Q04DX003 (ip), vehicle: Klucel (hydroxypropylcellulose) (HPC) 103 % of control

C=CCCCCCCCCC(=O)NN1CCOCC1
inactive: dose: 100.0 mg/kg/injection, schedule: Q04DX003 (ip), vehicle: saline with Tween-80 95 % of control | dose: 200.0 mg/kg/injection, schedule: Q04DX003 (ip), vehicle: saline with Tween-80 100 % of control | dose: 400.0 mg/kg/injection, schedule: Q04DX003 (ip), vehicle: saline with Tween-80 86 % of control

COc1cc(C(NC(N)=O)c2cc3c(cc2O)OCO3)cc(OC)c1O (stereo not drawn)
inactive: dose: 60.0 mg/kg/injection, schedule: Q01DX005 (ip), vehicle: Klucel + Tween-80 100 % of control | dose: 120.0 mg/kg/injection, schedule: Q01DX005 (ip), vehicle: Klucel + Tween-80 88 % of control | dose: 240.0 mg/kg/injection, schedule: Q01DX005 (ip), vehicle: Klucel + Tween-80 88 % of control

CC(C)(C(N=Cc1ccccc1)c1ccccc1)[N+](=O)[O-] (stereo not drawn)
inactive: dose: 60.0 mg/kg/injection, schedule: Q01DX005 (ip), vehicle: saline with Tween-80 100 % of control | dose: 120.0 mg/kg/injection, schedule: Q01DX005 (ip), vehicle: saline with Tween-80 98 % of control | dose: 240.0 mg/kg/injection, schedule: Q01DX005 (ip), vehicle: saline with Tween-80 99 % of control

CC1(C)OCC(CO)(Nc2nc(N3CC3)nc(N3CC3)n2)CO1
active: dose: 1.25 mg/kg/injection, schedule: Q01DX009 (ip), vehicle: saline 158 % of control and 164 % of control | [1] 199 % of control and 229 % of control | dose: 3.75 mg/kg/injection, schedule: Q01DX009 (ip), vehicle: saline 187 % of control
inactive: dose: 0.62 mg/kg/injection, schedule: Q01DX009 (ip), vehicle: saline 120 % of control | [2] 89 % of control and 98 % of control

CCOC(=O)C(C)(C)S(=O)(=O)Nc1ccccc1
inactive: dose: 60.0 mg/kg/injection, schedule: Q01DX005 (ip), vehicle: Klucel (hydroxypropylcellulose) (HPC) 105 % of control | dose: 120.0 mg/kg/injection, schedule: Q01DX005 (ip), vehicle: Klucel (hydroxypropylcellulose) (HPC) 102 % of control | dose: 240.0 mg/kg/injection, schedule: Q01DX005 (ip), vehicle: Klucel (hydroxypropylcellulose) (HPC) 102 % of control
